Data taken from ChEMBL document CHEMBL1138462 (J Med Chem, 2009).
The source made the active and inactive calls. No cut-off for these calls is given here.

Legend:
Cannabinoid receptor 2 = Cannabinoid receptor 2 (Homo sapiens, UniProt P34972); assay: Binding affinity to CB2 receptor
Cannabinoid receptor 1 [1] = target: T1, Cannabinoid receptor 1 (Homo sapiens, UniProt P21554); assay type: functional, cell-based, CHO-K1
Description: Antagonist activity at human CB1 receptor expressed in CHOK1 cells assessed as inhibition of CP-55940-induced response after 10 mins by GTPgamma[35S] binding assay

Cannabinoid receptor 1 [2] = target: T1, Cannabinoid receptor 1; assay: Binding affinity to CB1 receptor
Mus musculus [3] = assay: Antiobesity activity in diet-induced obese mouse assessed as reduction in food intake at 3 mg/kg, po for 7 days; assay type: functional; set-up: scale not given: the % may be the effect or the level left
Mus musculus [4] = assay: Antiobesity activity in diet-induced obese mouse assessed as reduction in weight gain at 3 mg/kg, po for 7 days; assay type: functional; set-up: scale not given: the % may be the effect or the level left
Rattus norvegicus [5] = assay: Antiobesity activity in fast-induced refeeding Sprague-Dawley rat model assessed as reduction in food intake at 3 mg/kg, po administered 30 mins prior to food intake measured every 10 mins for 2 hrs; assay type: functional; set-up: scale not given: the % may be the effect or the level left
Rattus norvegicus [6] = species: Rattus norvegicus; assay: Toxicity in Sprague-Dawley rat assessed as behavioral side effects and rapid respiration at concentration >=10 fold of plasma level; assay type: organism-based; details: in vivo
Mus musculus [7] = assay: Inhibition of CP-55940-induced analgesia in ICR mouse at 1 mg/kg, sc administered 15 mins before CP-55940 challenge measured after 45 mins by hot plate method; assay type: functional, organism-based; set-up: dose 1 mg/kg
[8] = Half life in rat at 1 mg/kg, iv and 5 mg/kg, po; assay type: ADME, organism-based; details: in vivo
[9] = Volume of distribution at steady state in rat at 1 mg/kg, iv and 5 mg/kg, po; assay type: ADME, organism-based; details: in vivo, read-out: Vdss
[10] = Solubility in sodium taurocholate/phosphatidyl choline salt medium; assay type: physicochemical
Rattus norvegicus [11] = species: Rattus norvegicus; assay: Anorectic activity in acute food intake rat model assessed as increase in energy expenditure; assay type: functional, organism-based
Rattus norvegicus [12] = species: Rattus norvegicus; assay: Anorectic activity in acute food intake rat model assessed as decrease in food intake; assay type: functional, organism-based
Mus musculus [13] = assay: Inhibition of CP-55940-induced locomotor activity in ICR mouse at 1 mg/kg, sc administered 15 mins before CP-55940 challenge measured after 25 mins; assay type: functional, organism-based; set-up: dose 1 mg/kg
[14] = Aqueous solubility of the compound; assay type: physicochemical; details: buffer
[15] = Oral bioavailability in rat at 500 mg/kg; assay type: ADME, organism-based; details: in vivo
[16] = Bioavailability in rat at 1 mg/kg, iv and 5 mg/kg, po; assay type: ADME, organism-based; details: in vivo
Rattus norvegicus [17] = species: Rattus norvegicus; assay: Anorectic activity in acute food intake rat model assessed as increase in fat oxidation; assay type: functional, organism-based
Rattus norvegicus [18] = assay: Toxicity in po dosed rat after 4 days; assay type: organism-based; details: in vivo, 96 h
Mus musculus [19] = assay: Inhibition of CP-55940-induced hypothermia in ICR mouse at 1 mg/kg, sc administered 15 mins before CP-55940 challenge measured after 65 mins; assay type: functional, organism-based; set-up: dose 1 mg/kg
Mus musculus [20] = assay: Inhibition of CP-55940-induced catalepsy in ICR mouse at 1 mg/kg, sc administered 15 mins before CP-55940 challenge measured after 90 mins; assay type: functional, organism-based; set-up: dose 1 mg/kg
Rattus norvegicus [21] = assay: Inhibition of CP-55940-induced locomotor activity in rat at >=1 mg/kg, sc administered 15 mins before CP-55940 challenge measured after 25 mins
Rattus norvegicus [22] = assay: Antiobesity activity in fast-induced refeeding Sprague-Dawley rat model assessed as reduction in food intake at 1 mg/kg, po administered 30 mins prior to food intake measured every 10 mins for 2 hrs; assay type: functional; set-up: scale not given: the % may be the effect or the level left
Mus musculus [23] = assay: Antiobesity activity in diet-induced obese mouse assessed as reduction in weight gain at 1 mg/kg, po for 7 days; assay type: functional; set-up: scale not given: the % may be the effect or the level left
Rattus norvegicus [24] = assay: Inhibition of CP-55940-induced analgesia in rat at >=1 mg/kg, sc administered 15 mins before CP-55940 challenge measured after 45 mins by hot plate method
Rattus norvegicus [25] = assay: Inhibition of CP-55940-induced catalepsy in rat at >=1 mg/kg, sc administered 15 mins before CP-55940 challenge measured after 90 mins
[26] = Oral bioavailability in rat up to 50 mg/kg; assay type: ADME, organism-based; details: in vivo
Mus musculus [27] = assay: Antiobesity activity in diet-induced obese mouse assessed as reduction in food intake at 1 mg/kg, po for 7 days; assay type: functional; set-up: scale not given: the % may be the effect or the level left
Rattus norvegicus [28] = assay: Inhibition of CP-55940-induced hypothermia in rat at >=1 mg/kg, sc administered 15 mins before CP-55940 challenge measured after 65 mins

Cannabinoid receptor 2, sequence (P34972 whole entry): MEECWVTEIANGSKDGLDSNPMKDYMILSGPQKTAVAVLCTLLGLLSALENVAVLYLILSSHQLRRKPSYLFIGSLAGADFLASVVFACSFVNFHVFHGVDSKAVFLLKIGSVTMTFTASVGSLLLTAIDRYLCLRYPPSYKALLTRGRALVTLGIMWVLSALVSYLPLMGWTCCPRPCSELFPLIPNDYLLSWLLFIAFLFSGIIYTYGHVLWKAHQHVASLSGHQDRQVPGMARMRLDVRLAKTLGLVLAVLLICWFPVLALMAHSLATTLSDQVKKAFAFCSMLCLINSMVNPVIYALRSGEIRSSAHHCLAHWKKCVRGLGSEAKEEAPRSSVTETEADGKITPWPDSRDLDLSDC
T1 sequence (P21554 whole entry): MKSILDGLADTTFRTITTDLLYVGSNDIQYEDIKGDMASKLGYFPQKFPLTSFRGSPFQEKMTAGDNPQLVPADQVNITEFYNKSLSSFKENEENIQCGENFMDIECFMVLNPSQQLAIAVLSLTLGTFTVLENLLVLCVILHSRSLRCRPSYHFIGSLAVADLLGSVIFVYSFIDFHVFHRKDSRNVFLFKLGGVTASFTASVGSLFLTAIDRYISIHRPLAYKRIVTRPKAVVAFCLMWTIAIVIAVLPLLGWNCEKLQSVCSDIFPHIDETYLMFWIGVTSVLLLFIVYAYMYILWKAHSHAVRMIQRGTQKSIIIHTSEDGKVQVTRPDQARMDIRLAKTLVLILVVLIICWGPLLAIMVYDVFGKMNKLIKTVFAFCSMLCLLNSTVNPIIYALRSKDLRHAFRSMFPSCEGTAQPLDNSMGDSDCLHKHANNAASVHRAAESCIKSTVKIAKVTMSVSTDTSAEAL

Structure (SMILES)	Ki (Cannabinoid receptor 2) [nM]	Ki (Cannabinoid receptor 1 [1]) [nM]	Ki (Cannabinoid receptor 1 [2]) [nM]	also measured
CC(F)(F)CN1CCc2c(nn(-c3ccccc3Cl)c2-c2ccc(Cl)cc2)C1			30	
COC(C)(C)CN1CCc2c(nn(-c3ccccc3Cl)c2-c2ccc(Cl)cc2)C1=O	162			
O=C1c2nn(-c3ccccc3Cl)c(-c3ccc(Cl)cc3)c2CCN1CC(F)(F)F	> 10000	3.1	1.7	
Cc1c(C(=O)NN2CCCCC2)nn(-c2ccc(Cl)cc2Cl)c1-c1ccc(Cl)cc1 [RIMONABANT]				Activity (Mus musculus [3]): 21%; Activity (Mus musculus [4]): 5.2%; Activity (Rattus norvegicus [5]): 43%
CCC(F)(F)CN1CCOc2c(nn(-c3ccccc3Cl)c2-c2ccc(Cl)cc2)C1=O	> 10000	0.7	1.4	
O=C1c2nn(-c3ccccc3Cl)c(-c3ccc(Cl)cc3)c2CCN1C1CCCC1			24	
Cc1nc2c(-c3ccc(Cl)cc3)n(-c3ccccc3Cl)nc2c(=O)n1CC(F)(F)F	> 10000			Activity (Rattus norvegicus [6]): Toxic
CC(F)(F)CN1CCc2c(nn(-c3ccccc3Cl)c2-c2ccc(Cl)cc2)C1=O	> 10000			Activity (Mus musculus [7]): Active; half-life [8]: 3.6 h; Vd [9]: 2.6 L/kg; solubility [10]: 18.5 ugA/ml; Activity (Rattus norvegicus [11]): Active; Activity (Rattus norvegicus [12]): Dose-dependent effect; Activity (Mus musculus [13]): Active; solubility [14]: 0.2 ugA/ml; bioavailability [15]: 50%; bioavailability [16]: 99%; Activity (Rattus norvegicus [17]): Active; Activity (Rattus norvegicus [18]): Non-toxic; Activity (Mus musculus [19]): Active; Activity (Rattus norvegicus [6]): Non-toxic; Activity (Mus musculus [20]): Active
O=C1c2nn(-c3ccccc3Cl)c(-c3ccc(Cl)cc3)c2OCCN1CC(F)(F)F	> 10000	1.5	1.9	
CC(F)(F)CN1CCOc2c(nn(-c3ccccc3Cl)c2-c2ccc(Cl)cc2)C1=O				Activity (Rattus norvegicus [21]): Active; Activity (Rattus norvegicus [22]): 40%; Vd [9]: 2.6 L/kg; Activity (Mus musculus [23]): 5.9%; Activity (Rattus norvegicus [24]): Active; Activity (Rattus norvegicus [25]): Active; bioavailability [26]: 51%; Activity (Mus musculus [27]): 23%; bioavailability [16]: 42%; Activity (Rattus norvegicus [28]): Active

Continued, in another order:

Ki (Cannabinoid receptor 2) [nM]	Ki (Cannabinoid receptor 1 [1]) [nM]	Ki (Cannabinoid receptor 1 [2]) [nM]	Structure (SMILES)	also measured
1780	9.8	2.5	CC(C)CN1CCc2c(nn(-c3ccccc3Cl)c2-c2ccc(Cl)cc2)C1=O	
> 10000	4.8	1.3	CC(C)N1CCOc2c(nn(-c3ccccc3Cl)c2-c2ccc(Cl)cc2)C1=O	
> 10000	5.5	2.5	CC(C)N1CCc2c(nn(-c3ccccc3Cl)c2-c2ccc(Cl)cc2)C1=O	
6810	11	4.7	CC(C)(C)N1CCc2c(nn(-c3ccccc3Cl)c2-c2ccc(Cl)cc2)C1=O	
23400	25	4.7	CCN1CCc2c(nn(-c3ccccc3Cl)c2-c2ccc(Cl)cc2)C1=O	
